Target: P. falciparum apicoplast DNA polymerase (Pf-apPOL) (Plasmodium falciparum, UniProt Q8ILY1)
Assay: Fluorescence-based high-throughput DNA polymerase assay (molecular beacon), primary screen and dose-response;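 on % inhibition ApPOL 90': test concentration in µM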;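 on % inhibition apPOL 180': test concentration in µM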
Assay type: biochemical
Settings: for DNA Pol: 90 min, 10 µM; for % inhibition Apol 40': DRC-2, 40'
Method in brief: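 Single-point screening used 10 µM compound with 20 nM polymerase, 20 nM hairpin substrate and 6 µM dNTPs for 90 min at 25 °C. Confirmatory titrations (2.5–80 µM) followed fluorescence at three times, and IC50 was derived from a fit including a cooperativity term n.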

P. falciparum apicoplast DNA polymerase (Pf-apPOL), sequence (Q8ILY1 entry or part of it): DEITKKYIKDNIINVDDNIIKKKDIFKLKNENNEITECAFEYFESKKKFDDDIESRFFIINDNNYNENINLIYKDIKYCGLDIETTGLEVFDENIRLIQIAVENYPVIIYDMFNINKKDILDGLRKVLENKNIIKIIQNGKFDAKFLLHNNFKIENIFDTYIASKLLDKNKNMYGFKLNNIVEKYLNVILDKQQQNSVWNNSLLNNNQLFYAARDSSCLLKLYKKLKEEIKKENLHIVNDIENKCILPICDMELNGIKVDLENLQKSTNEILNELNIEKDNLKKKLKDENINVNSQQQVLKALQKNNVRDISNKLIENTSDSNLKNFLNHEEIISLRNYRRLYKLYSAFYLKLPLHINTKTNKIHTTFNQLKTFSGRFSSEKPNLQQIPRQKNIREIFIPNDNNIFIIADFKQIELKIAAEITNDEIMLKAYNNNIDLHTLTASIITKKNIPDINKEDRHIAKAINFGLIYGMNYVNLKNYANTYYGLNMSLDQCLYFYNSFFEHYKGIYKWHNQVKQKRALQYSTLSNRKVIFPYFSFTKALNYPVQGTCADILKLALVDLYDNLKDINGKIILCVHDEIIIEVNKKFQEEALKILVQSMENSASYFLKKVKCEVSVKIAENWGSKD

CN(C)C=CC(=O)c1ccccn1 [Molecule 64, CN(C=CC(=O)c1ccccn1)C]
DNA Pol ('DNA Pol', screening value, unit not given): 79
% inhibition Apo pol 10' (DRC-1, concentration 2.5): 5.279%
% inhibition Apo pol 10' (DRC-1, concentration 5): 16.5803%
% inhibition Apo pol 10' (DRC-1, concentration 10): 34.5693%
% inhibition Apo pol 10' (DRC-1, concentration 20): 50.9232%
% inhibition Apo pol 10' (DRC-1, concentration 40): 69.0219%
% inhibition Apo pol 10' (DRC-1, concentration 80): 79.1475%
% inhibition Apol 90' (DRC-1, 90', concentration 2.5): 1.734%
% inhibition Apol 90' (DRC-1, 90', concentration 5): 6.501%
% inhibition Apol 90' (DRC-1, 90', concentration 10): 20.4436%
% inhibition Apol 90' (DRC-1, 90', concentration 20): 33.6237%
% inhibition Apol 90' (DRC-1, 90', concentration 40): 52.2034%
% inhibition Apol 90' (DRC-1, 90', concentration 80): 65.606%
% inhibition apPOL 180' (DRC-1, 180', concentration 2.5): -0.4261%
% inhibition apPOL 180' (DRC-1, 180', concentration 5): -0.5089%
% inhibition apPOL 180' (DRC-1, 180', concentration 10): 10.9691%
% inhibition apPOL 180' (DRC-1, 180', concentration 20): 21.4909%
% inhibition apPOL 180' (DRC-1, 180', concentration 40): 39.455%
% inhibition apPOL 180' (DRC-1, 180', concentration 80): 54.1589%
% inhibition Apo pol 5' (DRC-2, 5', concentration 2.5): 10%
% inhibition Apo pol 5' (DRC-2, 5', concentration 5): 18%
% inhibition Apo pol 5' (DRC-2, 5', concentration 10): 34%
% inhibition Apo pol 5' (DRC-2, 5', concentration 20): 44%
% inhibition Apo pol 5' (DRC-2, 5', concentration 40): 50%
% inhibition Apo pol 5' (DRC-2, 5', concentration 80): 54%
% inhibition Apol 40' (concentration 2.5): 6%
% inhibition Apol 40' (concentration 5): 12%
% inhibition Apol 40' (concentration 10): 27%
% inhibition Apol 40' (concentration 20): 41%
% inhibition Apol 40' (concentration 40): 53%
% inhibition Apol 40' (concentration 80): 64%
% inhibition ApPOL 90' (DRC-2, 90', concentration 2.5): 0.656%
% inhibition ApPOL 90' (DRC-2, 90', concentration 5): 7%
% inhibition ApPOL 90' (DRC-2, 90', concentration 10): 21%
% inhibition ApPOL 90' (DRC-2, 90', concentration 20): 36%
% inhibition ApPOL 90' (DRC-2, 90', concentration 40): 50%
% inhibition ApPOL 90' (DRC-2, 90', concentration 80): 65%
% inhibition apPOL 180' (DRC-2, 180', concentration 2.5): -5%
% inhibition apPOL 180' (DRC-2, 180', concentration 5): -1.23%
% inhibition apPOL 180' (DRC-2, 180', concentration 10): 9%
% inhibition apPOL 180' (DRC-2, 180', concentration 20): 23%
% inhibition apPOL 180' (DRC-2, 180', concentration 40): 42%
% inhibition apPOL 180' (DRC-2, 180', concentration 80): 63%
% inhibition Apo pol 5' (conc 40 (unit not given), 5', DRC-2): 50%
% inhibition ApPOL 90' (conc 40 (unit not given), 90', DRC-2): 50%
DNA Pol (primary screen hit value, DNA Pol (186 hits)): 79

Cc1cccc(NC(=O)Cn2ccc3c(=O)[nH]ccc32)c1C [Molecule 11]
IC50 (supplemental file 2, sheet IC50 nontoxic compounds, Pf-apPOL): 7.57 µM

Source: paper PMC9090415, “Discovery of small molecule inhibitors of Plasmodium falciparum apicoplast DNA polymerase” (Journal of Enzyme Inhibition and Medicinal Chemistry, 2022)
